The values below are quoted from earlier work in Sander's compilation of Henry's law constants (doi:10.1039/f19888401985).

This data set in a line: Henry solubility constant Hcp at 298.15 K (mol/(m3 Pa)). To be noted: reference: Abraham and Matteoli (1988); cited value.
In the case of `[Ar]` [argon], the “Henry solubility constant Hcp” value was 1.4e-05.

Consider `CCCC` [butane], for which the “Henry solubility constant Hcp” value was 1.3e-05. For `[He]` [helium], the “Henry solubility constant Hcp” value was 3.8e-06. For `CCCCCCC` [heptane], the “Henry solubility constant Hcp” value is 4.4e-06. Turning to `CCCCCC` [hexane], the “Henry solubility constant Hcp” value is 6.1e-06.

With `[Kr]` [krypton], the “Henry solubility constant Hcp” value is 2.5e-05. Take `[Ne]` [neon]: the “Henry solubility constant Hcp” value is 4.4e-06. As to `CCCCCCCC` [octane], the “Henry solubility constant Hcp” value was 3.1e-06. Regarding `CCCCC` [pentane], the “Henry solubility constant Hcp” value was 8e-06. As for `[Rn]` [radon], the “Henry solubility constant Hcp” value is 9.1e-05.

On to `[Xe]` [xenon], for which the “Henry solubility constant Hcp” value is 4.3e-05.
